Earlier results as cited in patent US20200038341A1, “METHODS AND COMPOSITIONS FOR TREATING JOINT DISEASE” (Script Essentials, LLC, priority 2015, published 2020).

Conditions: male and female participants over 50 years old, before and after the intervention

In the case of `CS(C)(=O)=O` [MSM, Methylsulfonylmethane], the “joint function, symptoms of joint degeneration and activities of daily living” value is listed as “improve joint function, relieve symptoms of joint degeneration and improve activities of daily living”.
